Experimental data from US20250230193A1, “CYCLIC COMPOUND HAVING SELECTIVE KRAS INHIBITORY EFFECT ON HRAS AND NRAS” (CHUGAI SEIYAKU KABUSHIKI KAISHA, priority 2022, published 2025).

How the values were obtained:
[1] = target: GDP-bound NRAS wild-type protein (Homo sapiens, UniProt P01111); assay: Binding to NRAS by surface plasmon resonance (SPR), Single Cycle Kinetics; settings: KD ratio NRAS/KRAS, class symbols
[2] = target: GDP-bound HRAS wild-type protein (Homo sapiens, UniProt P01112); assay: Binding to HRAS by surface plasmon resonance (SPR), Single Cycle Kinetics; settings: KD ratio HRAS/KRAS, class symbols
GDP-bound HRAS wild-type protein, sequence (P01112 whole entry): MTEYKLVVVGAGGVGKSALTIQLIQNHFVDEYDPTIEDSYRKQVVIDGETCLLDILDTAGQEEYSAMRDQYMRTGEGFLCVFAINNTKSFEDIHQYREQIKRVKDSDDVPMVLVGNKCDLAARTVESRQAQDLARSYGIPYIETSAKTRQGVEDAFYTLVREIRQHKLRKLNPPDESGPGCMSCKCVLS

GDP-bound NRAS wild-type protein, sequence (P01111 whole entry): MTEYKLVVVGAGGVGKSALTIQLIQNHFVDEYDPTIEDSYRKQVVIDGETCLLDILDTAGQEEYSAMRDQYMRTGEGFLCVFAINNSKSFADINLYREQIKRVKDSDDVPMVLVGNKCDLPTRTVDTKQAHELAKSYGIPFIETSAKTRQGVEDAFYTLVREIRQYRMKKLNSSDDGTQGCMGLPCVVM

Row | Compound | NRAS/KRAS (ratio of KD value with respect to GDP-bound NRAS wild-type protein to KD value with respect to KRAS) [1] | HRAS/KRAS (ratio of KD value with respect to GDP-bound HRAS wild-type protein to KD value with respect to KRAS) [2]
1 | CCC[C@H]1C(=O)N[C@@H]([C@@H](C)CC)C(=O)N(C)CC(=O)N(C)[C@H]2C/C=C\CCN(C2=O)[C@@H](Cc2ccc(C(F)(F)F)cc2)C(=O)N(C)CC(=O)N[C@@H](CCc2ccc3sc(C)c(C)c3c2)C(=O)N2C[C@H](OCC)C[C@H]2C(=O)NC2(CC(C)(C)C2)C(=O)N(C)[C@@H](C(CC)CC)C(=O)N(C)[C@H](C(=O)N(C)C)CC(=O)N1C [PP2900] | AA (a compound having 20 or more is denoted as AA) | A (a compound having 10 or more and less than 20 is denoted as A)
2 | CCC[C@H]1C(=O)N[C@@H]([C@@H](C)CC)C(=O)N(C)CC(=O)N(C)[C@H]2C/C=C\CCN(C2=O)[C@@H](Cc2ccc(C(F)(F)F)cc2)C(=O)N(C)CC(=O)N[C@@H](CCc2ccc3ccn(C)c3c2)C(=O)N2C[C@H](OCC)C[C@H]2C(=O)NC2(CC(C)(C)C2)C(=O)N(C)[C@@H](C2CCCC2)C(=O)N(C)[C@H](C(=O)N(C)C)CC(=O)N1C [PP2901] | A (a compound having 10 or more and less than 20 is denoted as A) | A (a compound having 10 or more and less than 20 is denoted as A)
3 | CCC[C@H]1C(=O)N[C@@H]([C@@H](C)CC)C(=O)N(C)CC(=O)N(C)[C@H]2C/C=C\CCN(C2=O)[C@@H](Cc2ccc(C)cc2)C(=O)N(C)CC(=O)N[C@@H](CCc2ccc3sc(C)c(C)c3c2)C(=O)N2C[C@H](OCC)C[C@H]2C(=O)NC2(CC(C)(C)C2)C(=O)N(C)[C@@H](C(CC)CC)C(=O)N(C)[C@H](C(=O)N(C)C)CC(=O)N1C [PP2902] | AA (a compound having 20 or more is denoted as AA) | A (a compound having 10 or more and less than 20 is denoted as A)
4 | CCC[C@H]1C(=O)N[C@@H]([C@@H](C)CC)C(=O)N(C)CC(=O)N(C)[C@H]2C/C=C\CCN(C2=O)[C@@H](Cc2ccc(C(F)(F)F)cc2)C(=O)N(C)CC(=O)N[C@@H](CCc2ccc3c(C)c(C)n(C)c3c2)C(=O)N2C[C@H](OCC)C[C@H]2C(=O)NC2(CC(C)(C)C2)C(=O)N(C)[C@@H](C(CC)CC)C(=O)N(C)[C@H](C(=O)N(C)C)CC(=O)N1C [PP2904] | AA (a compound having 20 or more is denoted as AA) | A (a compound having 10 or more and less than 20 is denoted as A)
5 | C#CC[C@H]1C(=O)N[C@@H]([C@@H](C)CC)C(=O)N(C)CC(=O)N(C)[C@H]2C/C=C\CCN(C2=O)[C@@H](Cc2ccc(C(F)(F)F)cc2)C(=O)N(C)CC(=O)N[C@@H](CCc2ccc(C(F)(F)F)c(OC)c2)C(=O)N2CCOC[C@H]2C(=O)NC2(CC(C)(C)C2)C(=O)N(C)[C@@H](C2CCCC2)C(=O)N(C)[C@H](C(=O)N(C)C)CC(=O)N1C [PP2905] | AA (a compound having 20 or more is denoted as AA) | A (a compound having 10 or more and less than 20 is denoted as A)
6 | CCC[C@H]1C(=O)N[C@@H]([C@@H](C)CC)C(=O)N(C)CC(=O)N(C)[C@H]2C/C=C\CCN(C2=O)[C@@H](Cc2ccc(C)cc2)C(=O)N(C)CC(=O)N[C@@H](CCc2ccc3c(C)c(C)n(C)c3c2)C(=O)N2C[C@H](OCC)C[C@H]2C(=O)NC2(CC(C)(C)C2)C(=O)N(C)[C@@H](C(CC)CC)C(=O)N(C)[C@H](C(=O)N(C)C)CC(=O)N1C [PP2906] | A (a compound having 10 or more and less than 20 is denoted as A) | A (a compound having 10 or more and less than 20 is denoted as A)
7 | CC[C@H](C)[C@@H]1NC(=O)[C@H](COC)N(C)C(=O)C[C@@H](C(=O)N(C)C)N(C)C(=O)[C@H](C2CCCC2)N(C)C(=O)C2(CC(C)(C)C2)NC(=O)[C@@H]2CCCCN2C(=O)[C@H](CCc2cc(F)c(C(F)(F)F)c(F)c2)NC(=O)CN(C)C(=O)[C@H](Cc2ccc(C(F)(F)F)cc2)N2CC/C=C\C[C@@H](C2=O)N(C)C(=O)CN(C)C1=O [PP2907] | AA (a compound having 20 or more is denoted as AA) | A (a compound having 10 or more and less than 20 is denoted as A)
8 | CCC[C@H]1C(=O)N[C@@H]([C@@H](C)CC)C(=O)N(C)CC(=O)N(C)[C@H]2C/C=C\CCN(C2=O)[C@@H](Cc2ccc(C(F)(F)F)cc2)C(=O)N(C)CC(=O)N[C@@H](CCc2ccc3c(C)cn(C)c3c2)C(=O)N2C[C@H](OCC)C[C@H]2C(=O)NC2(CC(C)(C)C2)C(=O)N(C)[C@@H](C(CC)CC)C(=O)N(C)[C@H](C(=O)N(C)C)CC(=O)N1C [PP2908] | AA (a compound having 20 or more is denoted as AA) | A (a compound having 10 or more and less than 20 is denoted as A)
9 | C#CC[C@H]1C(=O)N[C@@H]([C@@H](C)CC)C(=O)N(C)CC(=O)N(C)[C@H]2C/C=C\CCN(C2=O)[C@@H](Cc2ccc(C(F)(F)F)cc2)C(=O)N(C)CC(=O)N[C@@H](CCc2ccc(C(F)(F)F)c(OC)c2)C(=O)N2CC[C@H]2C(=O)NC2(CC(C)(C)C2)C(=O)N(C)[C@@H](C2CCCC2)C(=O)N(C)[C@H](C(=O)N(C)C)CC(=O)N1C [PP2909] | B (a compound having 3 or more and less than 10 is denoted as B) | B (a compound having 3 or more and less than 10 is denoted as B)
10 | CCC[C@H]1C(=O)N[C@@H]([C@@H](C)CC)C(=O)N(C)CC(=O)N(C)[C@H]2C/C=C\CCN(C2=O)[C@@H](Cc2ccc(C)cc2)C(=O)N(C)CC(=O)N[C@@H](CCc2ccc3c(C)cn(C)c3c2)C(=O)N2C[C@H](OCC)C[C@H]2C(=O)NC2(CC(C)(C)C2)C(=O)N(C)[C@@H](C(CC)CC)C(=O)N(C)[C@H](C(=O)N(C)C)CC(=O)N1C [PP2910] | AA (a compound having 20 or more is denoted as AA) | A (a compound having 10 or more and less than 20 is denoted as A)
11 | C#CC[C@H]1C(=O)N[C@@H]([C@@H](C)CC)C(=O)N(C)CC(=O)N(C)[C@H]2C/C=C\CCN(C2=O)[C@@H](Cc2ccc(C(F)(F)F)cc2)C(=O)N(C)CC(=O)N[C@@H](CCc2ccc(C(F)(F)F)c(OC)c2)C(=O)N2CC[C@H]2C(=O)NC2(CCC2)C(=O)N(C)[C@@H](C2CCCC2)C(=O)N(C)[C@H](C(=O)N(C)C)CC(=O)N1C [PP2911] | A (a compound having 10 or more and less than 20 is denoted as A) | B (a compound having 3 or more and less than 10 is denoted as B)
12 | CCC[C@H]1C(=O)N[C@@H]([C@@H](C)CC)C(=O)N(C)CC(=O)N(C)[C@H]2C/C=C\CCN(C2=O)[C@@H](Cc2ccc(C(F)(F)F)cc2)C(=O)N(C)CC(=O)N[C@@H](CCc2ccc3ccn(C)c3c2)C(=O)N2C[C@H](OCC)C[C@H]2C(=O)NC2(CC(C)(C)C2)C(=O)N(C)[C@@H](C(CC)CC)C(=O)N(C)[C@H](C(=O)N(C)C)CC(=O)N1C [PP2912] | AA (a compound having 20 or more is denoted as AA) | A (a compound having 10 or more and less than 20 is denoted as A)
13 | CCCN(C)C(=O)[C@@H]1CC(=O)N(C)[C@@H](CC)C(=O)N[C@@H]([C@@H](C)CC)C(=O)N(C)CC(=O)N(C)[C@H]2C/C=C\CCN(C2=O)[C@@H](Cc2ccc(C(F)(F)F)cc2)C(=O)N(C)CC(=O)N[C@@H](CCc2cc(F)c(C(F)(F)F)c(F)c2)C(=O)N2C[C@H](OCC3CC3)C[C@H]2C(=O)NC2(CCC2)C(=O)N(C)[C@@H](C2CCCC2)C(=O)N1C [PP2913] | A (a compound having 10 or more and less than 20 is denoted as A) | A (a compound having 10 or more and less than 20 is denoted as A)
14 | CCC[C@H]1C(=O)N[C@@H]([C@@H](C)CC)C(=O)N(C)CC(=O)N(C)[C@H]2C/C=C\CCN(C2=O)[C@@H](Cc2ccc(C)cc2)C(=O)N(C)CC(=O)N[C@@H](CCc2ccc3ccn(C)c3c2)C(=O)N2C[C@H](OCC)C[C@H]2C(=O)NC2(CC(C)(C)C2)C(=O)N(C)[C@@H](C(CC)CC)C(=O)N(C)[C@H](C(=O)N(C)C)CC(=O)N1C [PP2914] | AA (a compound having 20 or more is denoted as AA) | A (a compound having 10 or more and less than 20 is denoted as A)
15 | CCCN(C)C(=O)[C@@H]1CC(=O)N(C)[C@@H](CC)C(=O)N[C@@H]([C@@H](C)CC)C(=O)N(C)CC(=O)N(C)[C@H]2C/C=C\CCN(C2=O)[C@@H](Cc2ccc(C(F)(F)F)cc2)C(=O)N(C)CC(=O)N[C@@H](CCc2cc(F)c(C(F)(F)F)c(F)c2)C(=O)N2CC[C@H]2C(=O)NC2(CCC2)C(=O)N(C)[C@@H](C2CCCC2)C(=O)N1C [PP2915] | A (a compound having 10 or more and less than 20 is denoted as A) | A (a compound having 10 or more and less than 20 is denoted as A)
16 | CCC(CC)[C@H]1C(=O)N(C)[C@H](C(=O)N(C)C)CC(=O)N(C)[C@@H](COC)C(=O)N[C@@H]([C@@H](C)CC)C(=O)N(C)CC(=O)N(C)[C@H]2C/C=C\CCN(C2=O)[C@@H](Cc2ccc(C(F)(F)F)cc2)C(=O)N(C)CC(=O)N[C@@H](CCc2cc(F)c(C(F)(F)F)c(F)c2)C(=O)N2CCCC[C@H]2C(=O)NC2(CC(C)(C)C2)C(=O)N1C [PP2916] | A (a compound having 10 or more and less than 20 is denoted as A) | A (a compound having 10 or more and less than 20 is denoted as A)
